Data taken from PubChem BioAssay AID493202 (Sanford-Burnham Center for Chemical Genomics, 2011).
Calls of active or inactive are those of the source.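 The calls were made as follows: active = mean EC50 below 10 µM; inactive = the rest.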

target: Type-1 angiotensin II receptor (Homo sapiens) (UniProt P30556); experiment: AT1 receptor agonists, beta-arrestin recruitment, SAR follow-up, selectivity assay for APJ agonist project, cell-based, CHO-K1 PathHunter, luminescence, set 4 (AID 493202); details: CHO-K1 AGTR1 PathHunter beta-arrestin, 90 min
Sequence (P30556 whole entry, looked up): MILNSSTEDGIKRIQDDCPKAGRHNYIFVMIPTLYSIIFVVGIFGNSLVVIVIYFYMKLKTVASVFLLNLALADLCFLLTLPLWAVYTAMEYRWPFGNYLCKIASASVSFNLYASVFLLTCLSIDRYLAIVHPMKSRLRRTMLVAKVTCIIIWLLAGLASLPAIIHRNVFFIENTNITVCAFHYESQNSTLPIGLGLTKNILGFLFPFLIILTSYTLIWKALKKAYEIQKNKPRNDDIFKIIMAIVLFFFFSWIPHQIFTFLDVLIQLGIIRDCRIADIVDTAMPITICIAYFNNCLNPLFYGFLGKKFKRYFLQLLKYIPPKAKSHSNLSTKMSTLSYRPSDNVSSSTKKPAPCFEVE

EC50	SMILES
> 79 µM (inactive)	O=S(=O)(Nc1cc(Cl)c(O)c(Cl)c1)c1ccccc1
> 79 µM (inactive)	Cc1cc(O)c(C(C)C)cc1NS(=O)(=O)c1ccccc1
> 79 µM (inactive)	CC1=CC(=O)C(C(C)C)=C/C1=N/OS(=O)(=O)c1ccc(C(C)(C)C)cc1
> 79 µM (inactive)	CC1=CC(=O)C(C(C)C)=C/C1=N/OS(=O)(=O)c1ccc(OC(F)(F)F)cc1
> 79 µM (inactive)	CC1=CC(=O)C(C(C)C)=C/C1=N/OS(=O)(=O)c1ccc(C(F)(F)F)cc1
> 79 µM (inactive)	CC1=CC(=O)C(C(C)C)=C/C1=N/OS(=O)(=O)c1cccnc1
> 79 µM (inactive)	COC(=O)c1cc(NS(=O)(=O)c2ccccc2)ccc1O
